Measured values published in PubChem BioAssay AID330 (DTP/NCI, 2004).
Several values for one entry are separate records, joined by “and”; a condition that tells them apart may be missing. Equal entries are not always repeated. Toxic doses and inconclusive results are not listed.

Tested on: P388 leukemia ip, CD2F1 mice, survival T/C
Experiment: NCI In Vivo Anticancer Drug Screen. Data for tumor model P388 Leukemia (intraperitoneal) in CD2F1 (CDF1) mice
Details: endpoint: median survival time, higher = longer survival
Procedure, shortened: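 Mice carrying the transplanted tumor received test compound or vehicle. Survival was recorded in each group, and the value is the treated-group measurement divided by that of the vehicle-treated control group.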

[1] = dose: 50.0 mg/kg/injection, schedule: Q01DX009 (ip), vehicle: saline with Tween-80
[2] = dose: 100.0 mg/kg/injection, schedule: Q01DX009 (ip), vehicle: saline with Tween-80
[3] = dose: 200.0 mg/kg/injection, schedule: Q01DX009 (ip), vehicle: saline with Tween-80
[4] = dose: 200.0 mg/kg/injection, schedule: Q01DX009 (ip), vehicle: saline
[5] = dose: 60.0 mg/kg/injection, schedule: Q01DX005 (ip), vehicle: saline with Tween-80
[6] = dose: 120.0 mg/kg/injection, schedule: Q01DX005 (ip), vehicle: saline with Tween-80
[7] = dose: 240.0 mg/kg/injection, schedule: Q01DX005 (ip), vehicle: saline with Tween-80

**Q.** For CC1CC(=O)NC(=O)N1 (configuration not stated), which T/C [1] is on record?
**A.** 96 % of control

**Q.** What about the T/C [2] of the same molecule?
**A.** 102 % of control

**Q.** And the T/C (dose: 100.0 mg/kg/injection, schedule: Q04DX003 (ip), vehicle: saline with Tween-80)?
**A.** 97 % of control

**Q.** What about the T/C [3] of the same molecule?
**A.** 99 % of control

**Q.** And the T/C (dose: 200.0 mg/kg/injection, schedule: Q04DX003 (ip), vehicle: saline with Tween-80)?
**A.** 94 % of control

**Q.** What about the T/C (dose: 400.0 mg/kg/injection, schedule: Q04DX003 (ip), vehicle: saline with Tween-80) of the same molecule?
**A.** 103 % of control

**Q.** For CC(=O)N(C(C)=O)c1ccc(C)cc1, which T/C (dose: 12.5 mg/kg/injection, schedule: Q01DX009 (ip), vehicle: Klucel (hydroxypropylcellulose) (HPC)) is on record?
**A.** 94 % of control

**Q.** What about the T/C (dose: 25.0 mg/kg/injection, schedule: Q01DX009 (ip), vehicle: Klucel (hydroxypropylcellulose) (HPC)) of the same molecule?
**A.** 94 % of control

**Q.** And the T/C (dose: 50.0 mg/kg/injection, schedule: Q01DX009 (ip), vehicle: Klucel (hydroxypropylcellulose) (HPC))?
**A.** 100 % of control

**Q.** CCCCCC/C=C\C(=O)O[C@H]1C(=O)O[C@@H]2C[C@H]3C(C)=C(O)C(=O)C[C@]3(C)[C@H]3[C@@H](O)[C@H](O)[C@@]4(C(=O)OC)OC[C@]32[C@@H]14 was tested. Which T/C (dose: 0.75 mg/kg/injection, schedule: Q01DX005 (ip), vehicle: Klucel (hydroxypropylcellulose) (HPC)) did it give?
**A.** 105 % of control

**Q.** And the T/C (dose: 1.5 mg/kg/injection, schedule: Q01DX005 (ip), vehicle: Klucel (hydroxypropylcellulose) (HPC))?
**A.** 111 % of control

**Q.** And the T/C (dose: 3.0 mg/kg/injection, schedule: Q01DX005 (ip), vehicle: Klucel (hydroxypropylcellulose) (HPC))?
**A.** 112 % of control

**Q.** What about the T/C (dose: 6.0 mg/kg/injection, schedule: Q01DX005 (ip), vehicle: Klucel (hydroxypropylcellulose) (HPC)) of the same molecule?
**A.** 116 % of control

**Q.** For Cn1c2nc(-[n+]3ccc4ccccc4c3)nc-2c([O-])n(C)c1=O, which T/C (dose: 100.0 mg/kg/injection, schedule: Q04DX003 (ip), vehicle: saline) is on record?
**A.** 100 % of control

**Q.** And the T/C (dose: 200.0 mg/kg/injection, schedule: Q04DX003 (ip), vehicle: saline)?
**A.** 99 % of control

**Q.** What about the T/C (dose: 400.0 mg/kg/injection, schedule: Q04DX003 (ip), vehicle: saline) of the same molecule?
**A.** 100 % of control

**Q.** Which T/C (dose: 50.0 mg/kg/injection, schedule: Q01DX009 (ip), vehicle: saline) does the source give for O=C1C(O)=C(O)C(=O)C(O)=C1O here?
**A.** 108 % of control

**Q.** And the T/C (dose: 100.0 mg/kg/injection, schedule: Q01DX009 (ip), vehicle: saline)?
**A.** 111 % of control

**Q.** And the T/C [4]?
**A.** 117 % of control

**Q.** Which results are given for COC(=O)c1nn(-c2ccc(Cl)cc2)c2nc3ccccc3c-2c1C(=O)OC?
**A.** T/C (dose: 100.0 mg/kg/injection, schedule: Q01DX001 (ip), vehicle: saline with Tween-80): 96 % of control; T/C (dose: 200.0 mg/kg/injection, schedule: Q01DX001 (ip), vehicle: saline with Tween-80): 115 % of control; T/C (dose: 400.0 mg/kg/injection, schedule: Q01DX001 (ip), vehicle: saline with Tween-80): 96 % of control

**Q.** Which T/C [5] does the source give for [N-]=[N+]=Nc1ccc(SN2C(=O)c3ccccc3C2=O)cc1 here?
**A.** 112 % of control

**Q.** And the T/C [6]?
**A.** 113 % of control

**Q.** What about the T/C [7] of the same molecule?
**A.** 113 % of control

**Q.** Which T/C (dose: 50.0 mg/kg/injection, schedule: Q01DX005 (ip), vehicle: saline with Tween-80) does the source give for O=C1CCCCCOCCOCCOCCOCCOCCCCC1 here?
**A.** 104 % of control

**Q.** What about the T/C (dose: 100.0 mg/kg/injection, schedule: Q01DX005 (ip), vehicle: saline with Tween-80) of the same molecule?
**A.** 96 % of control

**Q.** And the T/C (dose: 200.0 mg/kg/injection, schedule: Q01DX005 (ip), vehicle: saline with Tween-80)?
**A.** 101 % of control

**Q.** Which results are given for c1cc(OCCOc2cccc3ocnc23)c2ncoc2c1?
**A.** T/C [5]: 98 % of control and 92 % of control; T/C [6]: 99 % of control; T/C [7]: 86 % of control and 89 % of control

**Q.** What does the source list for [Fe].[c-]1[c-][c-][c-](Cn2nnc3ccccc32)[c-]1.[c-]1[c-][c-][cH-][c-]1?
**A.** T/C [1]: 105 % of control; T/C [2]: 102 % of control; T/C [3]: 95 % of control

**Q.** For Cc1ccc(N=Nc2c(O)n(-c3ccc(C)cc3)c(=S)n(-c3ccc(Br)cc3)c2=O)cc1, which T/C (dose: 100.0 mg/kg/injection, schedule: Q04DX002 (ip), vehicle: saline with Tween-80) is on record?
**A.** 99 % of control

**Q.** And the T/C (dose: 200.0 mg/kg/injection, schedule: Q04DX002 (ip), vehicle: saline with Tween-80)?
**A.** 102 % of control

**Q.** And the T/C (dose: 400.0 mg/kg/injection, schedule: Q04DX002 (ip), vehicle: saline with Tween-80)?
**A.** 105 % of control

**Q.** CN(C=O)c1ccc(Cl)cc1 was tested. Which T/C (dose: 100.0 mg/kg/injection, schedule: Q04DX002 (ip), vehicle: saline) did it give?
**A.** 100 % of control

**Q.** What about the T/C (dose: 200.0 mg/kg/injection, schedule: Q04DX002 (ip), vehicle: saline) of the same molecule?
**A.** 97 % of control

**Q.** And the T/C (dose: 400.0 mg/kg/injection, schedule: Q04DX002 (ip), vehicle: saline)?
**A.** 100 % of control

**Q.** With N=[N+]=NC1C(O)C(CO)OC1n1cnc2c(N)ncnc21 (configuration not stated) as the molecule, how does the T/C (dose: 5.0 mg/kg/injection, schedule: Q03HX016 (ip), vehicle: Klucel (hydroxypropylcellulose) (HPC)) read?
**A.** 118 % of control

**Q.** What about the T/C (dose: 10.0 mg/kg/injection, schedule: Q03HX016 (ip), vehicle: Klucel (hydroxypropylcellulose) (HPC)) of the same molecule?
**A.** 110 % of control

**Q.** And the T/C (dose: 80.0 mg/kg/injection, schedule: Q03HX016 (ip), vehicle: Klucel (hydroxypropylcellulose) (HPC))?
**A.** 153 % of control

**Q.** What about the T/C (dose: 160.0 mg/kg/injection, schedule: Q03HX016 (ip), vehicle: Klucel (hydroxypropylcellulose) (HPC)) of the same molecule?
**A.** 64 % of control

**Q.** With Cc1ccccc1N(CC1CO1)CC1CO1 (configuration not stated) as the molecule, how does the T/C (dose: 25.0 mg/kg/injection, schedule: Q01DX009 (ip), vehicle: saline) read?
**A.** 119 % of control

**Q.** What about the T/C (dose: 100.0 mg/kg/injection, schedule: Q01DX009 (ip), vehicle: acetone) of the same molecule?
**A.** 156 % of control

**Q.** What about the T/C [4] of the same molecule?
**A.** 165 % of control
